Tests used:
[1] = test system: Swiss albino mice; experiment: Serum triglyceride and total cholesterol lowering activity in Swiss albino mice; format: in vivo; settings: male Swiss albino mice, oral, 10 mg/kg/day for 6 days, 1 hour after dosing on 6th day
Protocol: • i) Serum triglyceride and total cholesterol lowering activity in Swiss albino mice:
Male Swiss albino mice (SAM) were bred in Zydus animal house. All these animals were maintained under 12 hour light and dark cycle at 25±1° C. Animals were given standard laboratory chow (NIN, Hyderabad, India) and water ad libitum. SAM of 20-30 g body weight range was used. The protocol approved by Institutional Animal Ethics Committee is being used.
The test compounds were administered orally to Swiss albino mice at 0.001 to 50 mg/kg/day dose for 6 days. The compound was administered after suspending it in 0.25% CMC or dissolving it in water, when compound is water-soluble. Control mice were treated with vehicle (0.25% of Carboxymethylcellulose; dose 10 ml/kg).
The blood samples were collected on 0th day and in fed state 1 hour after drug administration on 6th day of the treatment. The blood was collected in non heparinised capillary and the serum was analyzed for triglyceride and total cholesterol (Wieland, O. Methods of Enzymatic analysis. Bergermeyer, H., O., Ed., 1963. 211-214; Trinder, P. Ann. Clin. Biochem. 1969. 6: 24-27). Measurement of serum triglyceride and total cholesterol was done using commercial kits (Zydus-Cadila, Pathline, Ahmedabad, India).
Percentage reduction in triglycerides/total cholesterol were calculated according to the formula: [formula]
OC=Zero day control group value OT=Zero day treated group value TC=Test day control group TT=Test day treated group

[2] = test system: Hamster of Syrian golden stain; experiment: Serum triglyceride and total cholesterol lowering activity in Hamster of Syrian golden strain on HF-HC diet; format: in vivo; settings: hamsters on HF-HC diet, po, 3 mg/kg/day for 15 days
From the text: ii) Surem triglyceride and total cholesterol lowering activity in Hamster of Syrian golden stain:
Male and Female Hamster of Syrian golden stain were bred in Zydus animal house. All these animals were maintained under 12-hour light and dark cycle at 22±3 degree C. The protocol approved by Institutional Animal Ethics Committee is being used. Two groups of animals were put on HF-HC (High fat and high cholesterol) diet for 14 days. On day 14 […] one group of animals of were put on normal diet for two weeks.
One group of animals on HF-HC diet were treated (po) with compounds of the present invention, at 0.001 to 50 mg/kg daily for 15 days while the other group received the vehicle. After 15 days blood samples. were be collected in non heparinized capillary from animals for determination of total cholesterol (TC), triglyceride (TG) (Wieland, O. Methods of Enzymatic analysis. Bergermeyer, H., O., Ed., 1963. 211-214; Trinder, P. Ann. Clin. Biochem. 1969. 6: 24-27). Measurement of serum triglyceride and total cholesterol was done using commercial kits (Pointe Scientific. Inc. USA.)
Percentage reduction in triglycerides/total cholesterol were calculated according to the formula:
• Percentage reduction (%)=(TT−TC)/TC*100
TC=Test day control group TT=Test day treated group.

Compound	% Triglyceride lowering [1] [%]	% Triglyceride lowering [2] [%]
CC1(C(=O)O)OCC(CCCCOc2ccc(Cc3ccccc3)cc2)CO1 (stereo not shown) [Example 38, 5-[4-(4-Benzyl-phenoxy)-butyl]-2-methyl-[1,3]dioxane-2-carboxylic acid]	32	–
CC1(C(=O)O)OCC(CCCCc2ccc(OCc3ccccc3)cc2)CO1 (stereo not shown) [Example 49, 5-[4-(4-Benzyloxy-phenyl)-butyl]-2-methyl-[1,3]dioxane-2-carboxylic acid]	26	–
CC1(C(=O)O)OCC(CCCCc2ccc(OS(C)(=O)=O)cc2)CO1 (stereo not shown) [Example 50, 5-[4-(4-Methanesulfonyloxy-phenyl)-butyl]-2-methyl-[1,3]dioxane-2-carboxylic acid]	32	45
